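Following 48 hours of exposure in 96-well plates, responses at five concentrations were used to interpolate endpoints linearly. The concentration for 50% growth inhibition is given as GI50. TGI denotes the concentration required for complete inhibition of growth.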
Key:
Assay in all cases: NCI-60 cell line screen, 48 h; in the data active = GI50 below about 0.43 µM; inactive = the rest
A549 NSCLC = test system: A549 NSCLC
SK-MEL-28 melanoma = test system: SK-MEL-28 melanoma
U251 CNS = test system: U251 CNS
SK-OV-3 ovarian = test system: SK-OV-3 ovarian
786-0 renal = test system: 786-0 renal
LOX IMVI melanoma = test system: LOX IMVI melanoma
UO-31 renal = test system: UO-31 renal
SF-539 CNS = test system: SF-539 CNS
IGROV1 ovarian = test system: IGROV1 ovarian
RXF 393 renal = test system: RXF 393 renal
HCT-116 colon = test system: HCT-116 colon
MDA-MB-435 = test system: MDA-MB-435
OVCAR-8 ovarian = test system: OVCAR-8 ovarian
SK-MEL-2 melanoma = test system: SK-MEL-2 melanoma
HL-60(TB) leukemia = test system: HL-60(TB) leukemia
NCI-H522 lung = test system: NCI-H522 lung
SF-295 CNS = test system: SF-295 CNS
UACC-257 melanoma = test system: UACC-257 melanoma
OVCAR-3 ovarian = test system: OVCAR-3 ovarian
MOLT-4 leukemia = test system: MOLT-4 leukemia
CCRF-CEM leukemia = test system: CCRF-CEM leukemia
ACHN renal = test system: ACHN renal
COLO 205 colon = test system: COLO 205 colon
EKVX NSCLC = test system: EKVX NSCLC
HT29 colon = test system: HT29 colon
MALME-3M melanoma = test system: MALME-3M melanoma
A498 renal = test system: A498 renal
NCI-H226 lung = test system: NCI-H226 lung
NCI-H23 lung = test system: NCI-H23 lung
SF-268 CNS = test system: SF-268 CNS
KM12 colon = test system: KM12 colon
M14 melanoma = test system: M14 melanoma
K-562 leukemia = test system: K-562 leukemia
SNB-19 CNS = test system: SNB-19 CNS
HOP-92 NSCLC = test system: HOP-92 NSCLC
HCT-15 colon = test system: HCT-15 colon
NCI/ADR-RES ovarian = test system: NCI/ADR-RES ovarian
SK-MEL-5 melanoma = test system: SK-MEL-5 melanoma
T-47D breast = test system: T-47D breast
MCF7 breast = test system: MCF7 breast
SN12C renal = test system: SN12C renal
RPMI-8226 leukemia = test system: RPMI-8226 leukemia
HOP-62 NSCLC = test system: HOP-62 NSCLC
BT-549 breast = test system: BT-549 breast
OVCAR-5 ovarian = test system: OVCAR-5 ovarian
MDA-MB-231 breast = test system: MDA-MB-231 breast
SNB-75 CNS = test system: SNB-75 CNS
HCC-2998 colon = test system: HCC-2998 colon
DU-145 prostate = test system: DU-145 prostate
UACC-62 melanoma = test system: UACC-62 melanoma
TK-10 renal = test system: TK-10 renal
OVCAR-4 ovarian = test system: OVCAR-4 ovarian
SW-620 colon = test system: SW-620 colon
CAKI-1 renal = test system: CAKI-1 renal
PC-3 prostate = test system: PC-3 prostate
NCI-H460 lung = test system: NCI-H460 lung
HS 578T breast = test system: HS 578T breast
SR leukemia = test system: SR leukemia

CC(C)c1ccc(Cc2cnc(NC(=O)c3cc(Br)cs3)s2)cc1
58.2 µM: TGI (HS 578T breast)
7.76 µM: TGI (SNB-75 CNS)
5.97 µM: TGI (RXF 393 renal)
87.5 µM: TGI (HOP-92 NSCLC)
inactive: GI50 (A549 NSCLC) 3.65 µM | GI50 (SK-MEL-28 melanoma) 5.41 µM | GI50 (U251 CNS) 3.42 µM | GI50 (SK-OV-3 ovarian) 6.06 µM | GI50 (786-0 renal) 4.55 µM | GI50 (LOX IMVI melanoma) 5.35 µM | GI50 (UO-31 renal) 3.8 µM | GI50 (SF-539 CNS) 2.04 µM | GI50 (IGROV1 ovarian) 3.7 µM | GI50 (RXF 393 renal) 1.75 µM | GI50 (HCT-116 colon) 2.98 µM | GI50 (OVCAR-8 ovarian) 4.4 µM | GI50 (SK-MEL-2 melanoma) 7.43 µM | GI50 (HL-60(TB) leukemia) 3.6 µM | GI50 (NCI-H522 lung) 1.48 µM | GI50 (SF-295 CNS) 2 µM | GI50 (UACC-257 melanoma) 7.6 µM | GI50 (OVCAR-3 ovarian) 2.75 µM | GI50 (MOLT-4 leukemia) 7.59 µM | GI50 (CCRF-CEM leukemia) 4.08 µM | GI50 (ACHN renal) 4.64 µM | GI50 (COLO 205 colon) 2.92 µM | GI50 (EKVX NSCLC) 4 µM | GI50 (HT29 colon) 4.5 µM | GI50 (MALME-3M melanoma) 3.44 µM | GI50 (NCI-H226 lung) 5.68 µM | GI50 (NCI-H23 lung) 3.45 µM | GI50 (SF-268 CNS) 5.89 µM | GI50 (KM12 colon) 2.12 µM | GI50 (M14 melanoma) 2.44 µM | GI50 (K-562 leukemia) 0.436 µM | GI50 (SNB-19 CNS) 5.02 µM | GI50 (HOP-92 NSCLC) 5.51 µM | GI50 (HCT-15 colon) 0.789 µM | GI50 (NCI/ADR-RES ovarian) 1.73 µM | GI50 (SK-MEL-5 melanoma) 1.9 µM | GI50 (T-47D breast) 4.27 µM | GI50 (MCF7 breast) 1.6 µM | GI50 (SN12C renal) 4.21 µM | GI50 (RPMI-8226 leukemia) 3.6 µM | GI50 (HOP-62 NSCLC) 3.05 µM | GI50 (BT-549 breast) 3.81 µM | GI50 (OVCAR-5 ovarian) 4.95 µM | GI50 (MDA-MB-231 breast) 3.09 µM | GI50 (SNB-75 CNS) 1.05 µM | GI50 (HCC-2998 colon) 3.65 µM | GI50 (DU-145 prostate) 3.67 µM | GI50 (UACC-62 melanoma) 1.38 µM | GI50 (TK-10 renal) 2.72 µM | GI50 (OVCAR-4 ovarian) 4.65 µM | GI50 (SW-620 colon) 2.98 µM | GI50 (CAKI-1 renal) 1.16 µM | GI50 (PC-3 prostate) 2.23 µM | GI50 (NCI-H460 lung) 3.3 µM | GI50 (HS 578T breast) 2.48 µM
95.7 µM: TGI (SK-OV-3 ovarian)
64.4 µM: TGI (SK-MEL-2 melanoma)
4.67 µM: TGI (A498 renal)
active: GI50 (MDA-MB-435) 0.355 µM | GI50 (A498 renal) 0.242 µM
29.2 µM: TGI (HOP-62 NSCLC)
19.4 µM: TGI (MDA-MB-231 breast) | TGI (TK-10 renal)
5.76 µM: TGI (NCI-H522 lung)
15 µM: TGI (COLO 205 colon)
19.6 µM: TGI (SF-295 CNS)
5.31 µM: TGI (NCI/ADR-RES ovarian)
5.64 µM: TGI (SF-539 CNS)
2.16 µM: TGI (MDA-MB-435)
> 100 µM: TGI (A549 NSCLC) | TGI (SK-MEL-28 melanoma) | TGI (U251 CNS) | TGI (786-0 renal) | TGI (LOX IMVI melanoma) | TGI (UO-31 renal) | TGI (IGROV1 ovarian) | TGI (HCT-116 colon) | TGI (OVCAR-8 ovarian) | TGI (HL-60(TB) leukemia) | TGI (UACC-257 melanoma) | TGI (OVCAR-3 ovarian) | TGI (MOLT-4 leukemia) | TGI (CCRF-CEM leukemia) | TGI (ACHN renal) | TGI (EKVX NSCLC) | TGI (HT29 colon) | TGI (MALME-3M melanoma) | TGI (NCI-H226 lung) | TGI (NCI-H23 lung) | TGI (SF-268 CNS) | TGI (KM12 colon) | TGI (M14 melanoma) | TGI (K-562 leukemia) | TGI (SNB-19 CNS) | TGI (HCT-15 colon) | TGI (SK-MEL-5 melanoma) | TGI (T-47D breast) | TGI (MCF7 breast) | TGI (SN12C renal) | TGI (RPMI-8226 leukemia) | TGI (BT-549 breast) | TGI (OVCAR-5 ovarian) | TGI (HCC-2998 colon) | TGI (DU-145 prostate) | TGI (UACC-62 melanoma) | TGI (OVCAR-4 ovarian) | TGI (SW-620 colon) | TGI (CAKI-1 renal) | TGI (PC-3 prostate) | TGI (NCI-H460 lung)

CC1=CSC2=NC(c3ccc(Cl)c(Cl)c3)=CC(c3ccc(Cl)cc3)N12 (stereo not drawn)
> 100 µM: TGI (A549 NSCLC) | TGI (SK-MEL-28 melanoma) | TGI (U251 CNS) | TGI (SK-OV-3 ovarian) | TGI (786-0 renal) | TGI (LOX IMVI melanoma) | TGI (UO-31 renal) | TGI (SF-539 CNS) | TGI (IGROV1 ovarian) | TGI (RXF 393 renal) | TGI (HCT-116 colon) | TGI (MDA-MB-435) | TGI (OVCAR-8 ovarian) | TGI (SK-MEL-2 melanoma) | TGI (HL-60(TB) leukemia) | TGI (NCI-H522 lung) | TGI (SF-295 CNS) | TGI (UACC-257 melanoma) | TGI (OVCAR-3 ovarian) | TGI (MOLT-4 leukemia) | TGI (CCRF-CEM leukemia) | TGI (ACHN renal) | TGI (COLO 205 colon) | TGI (HT29 colon) | TGI (MALME-3M melanoma) | TGI (A498 renal) | TGI (NCI-H226 lung) | TGI (NCI-H23 lung) | TGI (SF-268 CNS) | TGI (KM12 colon) | TGI (M14 melanoma) | TGI (K-562 leukemia) | TGI (SNB-19 CNS) | TGI (HOP-92 NSCLC) | TGI (HCT-15 colon) | TGI (NCI/ADR-RES ovarian) | TGI (SK-MEL-5 melanoma) | TGI (T-47D breast) | TGI (MCF7 breast) | TGI (SN12C renal) | TGI (RPMI-8226 leukemia) | TGI (HOP-62 NSCLC) | TGI (BT-549 breast) | TGI (OVCAR-5 ovarian) | TGI (MDA-MB-231 breast) | TGI (SNB-75 CNS) | TGI (HCC-2998 colon) | TGI (DU-145 prostate) | TGI (UACC-62 melanoma) | TGI (TK-10 renal) | TGI (OVCAR-4 ovarian) | TGI (SW-620 colon) | TGI (CAKI-1 renal) | TGI (PC-3 prostate) | TGI (NCI-H460 lung) | TGI (HS 578T breast) | TGI (SR leukemia)
inactive: GI50 (A549 NSCLC) > 100 µM | GI50 (SK-MEL-28 melanoma) > 100 µM | GI50 (U251 CNS) > 100 µM | GI50 (SK-OV-3 ovarian) > 100 µM | GI50 (786-0 renal) > 100 µM | GI50 (LOX IMVI melanoma) > 100 µM | GI50 (UO-31 renal) > 100 µM | GI50 (SF-539 CNS) > 100 µM | GI50 (IGROV1 ovarian) > 100 µM | GI50 (RXF 393 renal) > 100 µM | GI50 (HCT-116 colon) > 100 µM | GI50 (MDA-MB-435) > 100 µM | GI50 (OVCAR-8 ovarian) > 100 µM | GI50 (SK-MEL-2 melanoma) > 100 µM | GI50 (HL-60(TB) leukemia) > 100 µM | GI50 (NCI-H522 lung) > 100 µM | GI50 (SF-295 CNS) > 100 µM | GI50 (UACC-257 melanoma) > 100 µM | GI50 (OVCAR-3 ovarian) > 100 µM | GI50 (MOLT-4 leukemia) > 100 µM | GI50 (CCRF-CEM leukemia) > 100 µM | GI50 (ACHN renal) > 100 µM | GI50 (COLO 205 colon) > 100 µM | GI50 (HT29 colon) > 100 µM | GI50 (MALME-3M melanoma) > 100 µM | GI50 (A498 renal) > 100 µM | GI50 (NCI-H226 lung) > 100 µM | GI50 (NCI-H23 lung) > 100 µM | GI50 (SF-268 CNS) > 100 µM | GI50 (KM12 colon) > 100 µM | GI50 (M14 melanoma) > 100 µM | GI50 (K-562 leukemia) > 100 µM | GI50 (SNB-19 CNS) > 100 µM | GI50 (HOP-92 NSCLC) > 100 µM | GI50 (HCT-15 colon) > 100 µM | GI50 (NCI/ADR-RES ovarian) > 100 µM | GI50 (SK-MEL-5 melanoma) > 100 µM | GI50 (T-47D breast) > 100 µM | GI50 (MCF7 breast) > 100 µM | GI50 (SN12C renal) > 100 µM | GI50 (RPMI-8226 leukemia) > 100 µM | GI50 (HOP-62 NSCLC) > 100 µM | GI50 (BT-549 breast) > 100 µM | GI50 (OVCAR-5 ovarian) > 100 µM | GI50 (MDA-MB-231 breast) > 100 µM | GI50 (SNB-75 CNS) > 95.3 µM | GI50 (HCC-2998 colon) > 100 µM | GI50 (DU-145 prostate) > 100 µM | GI50 (UACC-62 melanoma) > 100 µM | GI50 (TK-10 renal) > 100 µM | GI50 (OVCAR-4 ovarian) > 100 µM | GI50 (SW-620 colon) > 100 µM | GI50 (CAKI-1 renal) > 100 µM | GI50 (PC-3 prostate) > 100 µM | GI50 (NCI-H460 lung) > 100 µM | GI50 (HS 578T breast) > 100 µM | GI50 (SR leukemia) > 61.3 µM

— PubChem BioAssay (NCI)
